In paper PMC11859928, “Design, Synthesis, and Antiproliferative Activity of Novel Indole/1,2,4-Triazole Hybrids as Tubulin Polymerization Inhibitors” (Pharmaceuticals, 2025):

Tests used:
Test in all cases: NCI one-dose assay
[1] = system: A498; format: cell-based, human; conditions: Homo sapiens, A498, A498, Renal cancer, read-out: Cell growth inhibition %
[2] = system: UACC-62; format: cell-based; conditions: Homo sapiens, UACC-62, Melanoma, read-out: Cell growth inhibition %
[3] = system: SF-295; format: cell-based; conditions: Homo sapiens, SF-295, CNS cancer, read-out: Cell growth inhibition %
[4] = system: SNB-75; format: cell-based; conditions: Homo sapiens, SNB-75, CNS cancer, read-out: Cell growth inhibition %
[5] = system: CCRF-CEM; format: cell-based; conditions: Homo sapiens, Leukemia, read-out: Cell growth inhibition %
[6] = system: SK-MEL-2; format: cell-based; conditions: Homo sapiens, SK-MEL-2, Melanoma, read-out: Cell growth inhibition %
[7] = system: COLO 205; format: cell-based; conditions: Homo sapiens, COLO 205, Colon cancer, read-out: Cell growth inhibition %
[8] = system: LOX IMVI; format: cell-based; conditions: Homo sapiens, Melanoma, read-out: Cell growth inhibition %
[9] = system: RPMI-8226; format: cell-based; conditions: Homo sapiens, RPMI-8226, Leukemia, read-out: Cell growth inhibition %
[10] = system: KM12; format: cell-based; conditions: Homo sapiens, KM12, Colon cancer, read-out: Cell growth inhibition %
[11] = system: HCT-116; format: cell-based; conditions: Homo sapiens, HCT-116, Colon cancer, read-out: Cell growth inhibition %
[12] = system: NCI-H226; format: cell-based; conditions: Homo sapiens, NCI-H226, Non-small cell lung cancer, read-out: Cell growth inhibition %
[13] = system: BT-549; format: cell-based; conditions: Homo sapiens, BT-549, Breast cancer, read-out: Cell growth inhibition %
[14] = system: MDA-MB-468; format: cell-based; conditions: Homo sapiens, MDA-MB-468, Breast cancer, read-out: Cell growth inhibition %
[15] = system: HOP-62; format: cell-based; conditions: Homo sapiens, HOP-62, Non-small cell lung cancer, read-out: Cell growth inhibition %
[16] = system: NCI-H322M; format: cell-based; conditions: Homo sapiens, Non-small cell lung cancer, read-out: Cell growth inhibition %
[17] = system: MOLT-4; format: cell-based; conditions: Homo sapiens, MOLT-4, Leukemia, read-out: Cell growth inhibition %
[18] = system: MCF7; format: cell-based; conditions: Homo sapiens, MCF7, Breast cancer, read-out: Cell growth inhibition %
[19] = system: ACHN; format: cell-based; conditions: Homo sapiens, Renal cancer, read-out: Cell growth inhibition %
[20] = system: HCT-15; format: cell-based; conditions: Homo sapiens, HCT-15, Colon cancer, read-out: Cell growth inhibition %
[21] = system: PC-3; format: cell-based; conditions: Homo sapiens, PC-3, Prostate cancer, read-out: Cell growth inhibition %
[22] = system: MDA-MB-435; format: cell-based; conditions: Homo sapiens, MDA-MB-435, Melanoma, read-out: Cell growth inhibition %
[23] = system: CAKI-1; format: cell-based; conditions: Homo sapiens, CAKI-1, Renal cancer, read-out: Cell growth inhibition %

| SMILES | inhibition at 10 µM [1] | inhibition at 10 µM [2] | inhibition at 10 µM [3] | inhibition at 10 µM [4] | inhibition at 10 µM [5] | inhibition at 10 µM [6] | inhibition at 10 µM [7] | inhibition at 10 µM [8] | inhibition at 10 µM [9] | inhibition at 10 µM [10] | inhibition at 10 µM [11] | inhibition at 10 µM [12] | inhibition at 10 µM [13] | inhibition at 10 µM [14] | inhibition at 10 µM [15] | inhibition at 10 µM [16] | inhibition at 10 µM [17] | inhibition at 10 µM [18] | inhibition at 10 µM [19] | inhibition at 10 µM [20] | further results |
| --- | --- | --- | --- | --- | --- | --- | --- | --- | --- | --- | --- | --- | --- | --- | --- | --- | --- | --- | --- | --- | --- |
| COc1ccc(/C(CSc2nnc(-c3c[nH]c4ccccc34)n2-c2ccccc2)=N/O)cc1 [Compound 7g, (Z)-2-((5-(1H-Indol-3-yl)-4-phenyl-4H-1,2,4-triazol-3-yl)thio)-1-(4-methoxyphenyl) Ethanone Oxime] | 30.2% | 68.6% | 79% | 36.7% | 83.5% | 94.1% | 63.7% | 178% | 90.2% | 78.8% | 71.9% | 81.8% | 83.5% | 99.4% | 55% | 63.6% | 83.3% | 85.5% | 77.7% | 84.7% | inhibition at 10 µM [21]: 76.9%; inhibition at 10 µM [22]: 105%; inhibition at 10 µM [23]: 79.9% |
| COc1ccc(C(=O)CSc2nnc(-c3c[nH]c4ccccc34)n2-c2ccccc2)cc1 [Compound 6g, 2-((5-(1H-Indol-3-yl)-4-phenyl-4H-1,2,4-triazol-3-yl)thio)-1-(4-methoxyphenyl) Ethenone] | -11.3% | 74.2% | 63.8% | 85% | 17.5% | 28% | 15.2% | 56.5% | 27.3% | 11.9% | 47.5% | 99.9% | 75.3% | 40.2% | 91.2% | 41.6% | 17.9% | 54.4% | 77.2% | 26.7% | inhibition at 10 µM [21]: 49.7%; inhibition at 10 µM [22]: 30.9%; inhibition at 10 µM [23]: 38.5% |
| O=C(CSc1nnc(-c2c[nH]c3ccccc23)n1-c1ccccc1)c1ccc(Cl)cc1 [Compound 6j, 2-((5-(1H-indol-3-yl)-4-phenyl-4H-1,2,4-triazol-3-yl)thio)-1-(4-chlorophenyl) Ethenone] | 42.7% | 47.2% | 45% | 45.3% | 7.26% | 66.3% | 57.4% | 84.1% | 16.8% | 21.3% | 54.2% | 82.4% | 30.2% | 53.6% | 53% | 41.3% | -3.56% | 61.6% | 42.5% | 26.7% | inhibition at 10 µM [21]: 39.5%; inhibition at 10 µM [22]: 20.8%; inhibition at 10 µM [23]: 35.5% |
| O=C(CSc1nnc(-c2c[nH]c3ccccc23)n1-c1ccccc1)c1ccc(Br)cc1 [Compound 6i, 2-((5-(1H-Indol-3-yl)-4-phenyl-4H-1,2,4-triazol-3-yl)thio)-1-(4-bromophenyl) Ethenone] | 64% | 64.8% | 66.3% | 61.2% | 13.6% | 119% | 86.5% | 58.2% | 45.6% | 65.4% | 45.7% | 60.9% | 34.8% | 78% | 26.4% | 54.3% | 7.77% | 46.6% | 62.6% | 56% | inhibition at 10 µM [21]: 53.8%; inhibition at 10 µM [22]: 59.1%; inhibition at 10 µM [23]: 55.7% |
| O/N=C(\CSc1nnc(-c2c[nH]c3ccccc23)n1-c1ccccc1)c1ccccc1 [Compound 7f, (Z)-2-((5-(1H-Indol-3-yl)-4-phenyl-4H-1,2,4-triazol-3-yl)thio)-1-phenylethanone Oxime] | 14.8% | 59.2% | 60.8% | 23.8% | 59% | 50.8% | 47.1% | 59% | 68.1% | 59.9% | 60% | 56.7% | 42.5% | 64.6% | 15.4% | 35% | 76.1% | 58.9% | 58.4% | 74.8% | inhibition at 10 µM [21]: 75.9%; inhibition at 10 µM [22]: 54.9%; inhibition at 10 µM [23]: 48.9% |
| O=C(CSc1nnc(-c2c[nH]c3ccccc23)n1-c1ccccc1)c1ccccc1 [Compound 6f, 2-((5-(1H-indol-3-yl)-4-phenyl-4H-1,2,4-triazol-3-yl)thio)-1-phenylethanone] | -6.16% | 26.6% | 28% | -0.34% | 8.65% | 8.14% | 6.63% | 70.8% | 18.7% | 30.5% | 62% | 95.5% | 37.8% | 22.8% | 76.6% | 18.8% | 9.43% | 63.8% | 39.5% | 20.6% | inhibition at 10 µM [21]: 34.2%; inhibition at 10 µM [22]: 12.8%; inhibition at 10 µM [23]: 46.8% |
